# Data published in patent US11541065B2, “Compositions and methods for treating brain injury” (UNM RAINFOREST INNOVATIONS, priority 2018, dated 2023).
# What was measured:
# [1] = tested on: control and hyperhomocysteinemic rats subjected to MCAO; assay: MCAO (60 min) and reperfusion; infarct size and structural integrity by MRI (T2, ADC, FA maps); assay type: in vivo, male Wistar rats; conditions: for total infarct volume (T2 maps): 24 hours after MCAO
# Experimental: Middle cerebral artery occlusion (MCAO) was performed on both male rats and mice. For rat studies, control and hyperhomocysteinemic male Wistar rats (8-9 weeks, 290-295 g) were subjected to MCAO under anesthesia (2% isoflurane in medical grade oxygen), using the intraluminal method as previously described (Candelario-Jalil, E., et al., 2004, Brain Res 1007:98-108; Deb et al., 2013, J Neurosci 33:17814-17826). Briefly, the right common carotid artery (CCA) was exposed through an incision made in the ventral midline neck region. To prevent improper insertion of the occluding filament, both the external carotid artery and pterygopalatine branch of the internal carotid artery were clipped. A silicon-rubber-coated monofilament (403756, Doccol Corp., Sharon, Mass.) was inserted into the internal carotid artery through an incision made in the CCA, 2 mm proximal from the bifurcation of the CCA, and advanced 18-19 mm from the bifurcation, to occlude the origin of the anterior cerebral, middle cerebral, and posterior communicating arteries. The incision was closed and the rats were allowed to recover from anesthesia. A quick assessment of neurological deficit was done immediately prior to reperfusion and only those animals that had more than 50% of contralateral forelimb flexion and walked in circles to the contralateral side were considered for the study, as previously described (Longa et al., 1989, Stroke 20:84-91). Following 60 minutes of occlusion, the rats were anesthetized and the filament was gently retracted to allow reperfusion. The incision was closed and the rats were allowed to recover from anesthesia. A subset of control and hyperhomocysteinemic rats received a single intravenous injection of GluN2A-NMDAR selective inhibitor NVP-AAM077 (1.2 mg/kg body weight) through the femoral vein, and another subset received a single intraperitoneal injection of GluN2B-NMDAR inhibitor Ro 256981 (6 mg/kg body weight), as previously described (Chaperon et al., 2003, Behav Pharmacol 14:477-87; Fox et al., 2006, Hippocampus 16:907-015). Both NVP-AAM077 and Ro 256981 were administered at the onset of ischemic insult. The rats were then subjected to MRI on days 1, 3, and 14 post-MCAO and a series of behavioral tests was performed between days 7-9 post-MCAO.
# Multimodal MRI of rat brain that includes relaxation time imaging and diffusion imaging was performed at 1, 3 and 14 days after MCAO and reperfusion. The rats were placed in a dedicated holder and positioned in the isocenter of a 4.7-Tesla MRI scanner (Bruker Biospin) that is equipped with a 40-cm bore and a gradient of 660 mT/m at rise time within […]. To obtain good signal-to-noise ratio, a small-bore linear RF coil (inner diameter=72 mm) was used for signal excitation, and a single tuned surface coil (RAPID Biomedical, Rimpar, Germany) was used for signal detection (Sood et al., 2009, J Cereb Blood Flow Metab 29:308-316; Taheri, S. and Sood, R., 2007, Magn Reson Imaging 25:613-625; Yang et al., 2013 J Cereb Blood Flow Metab 33:1104-1114). For mice, the MRI was performed only at day 1. The mice were placed in its dedicated holder of inner diameter 72 mm in the 4.7-Tesla MRI scanner with a 40-cm bore size and a gradient rise time/maximum speed of 9000 T/m/s. During MRI, the rats and mice were kept anesthetized with 2% isoflurane in medical grade oxygen. Respiration and heart rate were monitored continuously and body temperature was maintained at 37.0±0.5° C.
# For rats, T2-weighted images were acquired with a rapid acquisition with relaxation enhancement (RARE) sequence of Repetition Time (TR)/Echo Time (TE)=5,000 ms/56 ms, Field of View (FOV)=4 cm×4 cm, slice thickness=1 mm, inter-slice distance=1.1 mm, number of slices=12, matrix=256×256 and number of average=3. For mice, T2 weighted images were acquired with a RARE sequence of Repetition Time/Echo Time=5,000 ms/56 ms, Field of View=4 cm×4 cm, slice thickness=1 mm, number of slices=12, matrix=256×256 and number of average=3. […]
# ERK MAPK = ERK MAPK phosphorylation during oxygen-glucose deprivation (OGD) in rat cortical neuron cultures; assay type: cell-based; conditions: rat cortical neurons
# Experimental: Equal protein from total cell lysates obtained from rat and mice neuronal cultures were resolved in 7.5% SDS-PAGE, and subjected to immunoblotting procedure as described earlier (Podder and Paul, 2009, J Neurochem 110:1095-1106). Blots were analyzed with antibodies as described in each experiment. All primary antibodies (anti-pERK, anti-ERK) and secondary-horse radish peroxidase conjugated antibody concentrations were used according to recommendations provided by the manufacturer. Signals from immune complexes in the blots were developed using West Pico supersignal chemiluminescence reagents and then captured on X-ray films. Densitometric analysis of the images was performed using the Image J software.
# At specified time periods (one hour, two hours, and three hours) during OGD alone or OGD in the presence of L-Hcy (50 μM), cells were removed from the chamber and lysed for immunoblot analysis. Some cultures were treated with L-Hcy (three hours) during the OGD insult in the presence or absence of NVP-AAM077 (30 nM; 3 h). […] Cells were then subjected to staining with Hoechst 33342 dye for 15 minutes, washed extensively with PBS, and analyzed using fluorescent microscopy to assess nuclear damage. To quantitatively assess the percentage of pyknotic nuclei, a total of 1000 cells were counted for each set of experiments (Poddar et al., 2010, J Neurochem 115, 1350-1362).
# MCP-1 = MCP-1 expression and release from neuron cultures (enzyme immunoassay); assay type: cell-based
# Experimental: For measurement of cPLA2 activity and MCP-1 levels in cell lysates, neuronal lysates were prepared by harvesting neurons in ice-cold Tris-buffered saline (pH 7.4) containing phosphatase inhibitor, sonicated three times in five-second bursts and placed on ice (two minutes) between each burst of sonication. The lysed cell suspensions were centrifuged at 10,000 rpm (10 minutes) and the supernatant was collected in another tube. Equal amounts of protein from the supernatant were processed for cPLA2 activity assay according to the manufacturer's protocol. Equal protein from the lysates were also used to estimate MCP-1 levels using an MCP-1 ELISA kit.
# For measurement of PGE2 levels and MCP-1 levels released from neurons, culture medium was collected from each experimental plate and centrifuged at 1000 rpm for five minutes to remove cellular debris. Equal volume (100 μl) of the supernatant from each sample was used to determine PGE2 level using the PGE2 ELISA kit according to the manufacturer's instructions.
# [2] = control rats, single injection at onset of ischemic insult (NVP-AAM077 1.2 mg/kg; Ro 256981 6 mg/kg), untreated control 18.65±2.89%
# [3] = hyperhomocysteinemic (HHcy) rats, single injection at onset of insult (NVP-AAM077 1.2 mg/kg; Ro 256981 6 mg/kg), untreated HHcy 37.41±2.33%
smiles,measurement,setting,value
C[C@@H](CN1CCC(Cc2ccccc2)CC1)[C@@H](O)c1ccc(O)cc1 [Ro 25-6981],total infarct volume (T2 maps),[1]; [2],7.46±1.24%
same,total infarct volume (T2 maps),[1]; [3],32.48±4.32%
"C[C@H](NC(c1cccc2[nH]c(=O)c(=O)[nH]c12)P(=O)(O)O)c1ccc(Br)cc1 (stereo partly drawn) [NVP-AAM077, ({[(1S)-1-(4-bromophenyl)ethyl]amino}-(2,3-dioxo-1,4-dihydroquinoxalin-5-yl)methyl)phosphonic acid]",lesion volume (T2 maps),"[1]; HHcy rats, day 3 after MCAO, NVP-AAM077 1.2 mg/kg, untreated HHcy 38.63±2.75%",19.61±4.48%
same,FA value in the infarcted area,"[1]; HHcy rats, day 14 after MCAO, NVP-AAM077 1.2 mg/kg, untreated HHcy 0.25±0.01",0.32±0.01
same,lesion volume (T2 maps),"[1]; HHcy rats, day 14 after MCAO, NVP-AAM077 1.2 mg/kg, untreated HHcy 27.16±2.18%",10.76±2.40%
same,total infarct volume (T2 maps),[1]; [2],16.07±2.8%
same,total infarct volume (T2 maps),[1]; [3],17.98±3.24%
same,effect on ERK MAPK activation by OGD plus L-homocysteine,"ERK MAPK; OGD and L-Hcy 50 μM three hours, NVP-AAM077 30 nM",inhibits the activation of ERK MAPK
same,effect on homocysteine-induced expression and release of MCP-1,"MCP-1; L-homocysteine 50 μM four hours, with DL-AP5 200 μM or NVP-AAM077 30 nM",attenuates the expression and release of MCP-1
N[C@@H](CCS)C(=O)O [L-homocysteine],ERK MAPK phosphorylation during OGD,"ERK MAPK; OGD in the presence of L-Hcy 50 μM, time course up to three hours",causes sustained ERK MAPK phosphorylation
same,expression and release of MCP-1 from neurons,"MCP-1; L-homocysteine 50 μM, 0, two and four hours, alone",progressive increase in expression and release
